According to patent US12263248B2, “Compounds and compositions for intracellular delivery of therapeutic agents” (ModernaTX, Inc., priority 2018, dated 2025):

Legend:
[1] = Particle size and polydispersity index of nanoparticle compositions (Zetasizer Nano ZS); assay type: physicochemical; conditions: Table 1A; for Size (nm): lipid:DSPC:cholesterol:PEG-DMG 50:10:38.5:1.5 mol %
How it was run: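 Zetasizer Nano ZS; samples in 1×PBS; read-out: particle size plus polydispersity index.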

luciferase (Luc) mRNA [2] = assay: Luc expression (total flux) after intramuscular administration; assay type: in vivo, mice; conditions: for Total flux, 0.001 mpk Dose / Total flux, 0.01 mpk Dose / Total flux (p/s) 0.01 mpk Dose: 6 hours after intramuscular administration; for Total flux, 0.001 mpk Dose / Total flux, 0.01 mpk Dose: Luc mRNA and H10 mRNA; for AUC (p/s * h) / Lipid/MC3 AUC: Table 3H, Luc; for Total flux (p/s) 0.01 mpk Dose: Table 5B; for i.m. Lipid/MC3 0.01 mpk, Luc, 6 h: Table 3B
Experimental: In order to monitor how effectively various nanoparticle compositions deliver therapeutic and/or prophylactics to targeted cells, different nanoparticle compositions including a particular therapeutic and/or prophylactic (for example, a modified or naturally occurring RNA such as an mRNA) are prepared and administered to rodent populations. Mice are intravenously, intramuscularly, intraarterially, or intratumorally administered a single dose including a nanoparticle composition with a formulation such as those provided in Example 3. In some instances, mice may be made to inhale doses. Dose sizes may range from 0.001 mg/kg to 10 mg/kg, where 10 mg/kg describes a dose including 10 mg of a therapeutic and/or prophylactic in a nanoparticle composition for each 1 kg of body mass of the mouse. A control composition including PBS may also be employed.
Sample formulations including both modified luciferase (Luc) mRNA and H10 mRNA were prepared and administered intramuscularly and the resulting expression and immunogenicity were evaluated simultaneously. Formulations including compounds according to Formula (I), (IA), (IB), (II), (IIa), (IIb), (IIc), (IId), (IIe), (IIf), (IIg), (III), (VI), (VI-a), (VII), (VIII), (VIIa), (VIIIa), (VIIIb), (VIIb-1), (VIIb-2), (VIIb-3), (VIIc), (VIId), (VIIIc), or (VIIId) were prepared and administered at doses of 0.001 and 0.01 mpk (e.g., doses of 0.0005 mpk of a formulation including Luc mRNA and a formulation including H10 mRNA or doses of 0.005 mpk of a formulation including Luc mRNA and a formulation including H10 mRNA).
Sample formulations including modified luciferase (Luc) mRNA prepared and administered intramuscularly and the resulting expression and immunogenicity were evaluated simultaneously. Formulations including compounds according to Formula (I), (IA), (IB), (II), (IIa), (IIb), (IIc), (IId), (IIe), (IIf), (IIg), (III), (VI), (VI-a), (VII), (VIII), (VIIa), (VIIIa), (VIIIb), (VIIb-1), (VIIb-2), (VIIb-3), (VIIc), (VIId), (VIIIc), or (VIIId) were prepared and administered at dose of and 0.01 mpk.

luciferase (Luc) mRNA [3] = assay: Luc expression, whole body bioluminescence after intravenous administration to mice; assay type: in vivo; conditions: for Total Flux 3 hours / Total Flux 6 hours / Total Flux 24 hours: Luc mRNA; for Fold increase in total body Luc Flux relative to MC3 at 6 h: Table 3A, i.v. administration
How it was run: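 Bioluminescence, read as region-of-interest total flux at 3, 6 and 24 h, followed a single 0.5 mg/kg intravenous dose of Luc mRNA-loaded nanoparticles in mice (n=6). Luciferin substrate (200 μL, 15 mg/mL in PBS) was injected intraperitoneally into CD-1 mice 15 minutes ahead of each imaging point.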

[4] = Apparent (surface) pKa of the LNP formulation (TNS assay); assay type: physicochemical; conditions: for pKa: Table 1A
How it was run: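 Fluorescence of TNS probe added to LNP samples (mRNA 0.04 mg/mL) was read across 21 buffers of pH about 3-12, triplicate per pH. The inflection point of the sigmoidal fluorescence-vs-pH curve, […], gives apparent pKa; method validated in 1× PBS and Tris/sucrose buffer.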

luciferase (Luc) mRNA [5] = assay: Luc expression in liver, lung, spleen and femur 6 hours after intravenous administration; assay type: in vivo; conditions: mice, intravenous, 0.5 mpk
How it was run: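 LNP-formulated mRNA given IV to mice (n=3) at 0.5 mpk; at 6 h, bioluminescence imaged ex vivo 15 min after IP D-luciferin (15 mg/mL, 200 μL), organs imaged within 25 min. Values are total flux by region of interest.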

[6] = Encapsulation efficiency of RNA (QUANT-IT RIBOGREEN RNA assay); assay type: physicochemical; conditions: Table 1A
How it was run: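 RiboGreen fluorescence (ex ~480, em ~520 nm) compared between intact samples and Triton X-100-lysed samples after 15 min at 37 °C in TE buffer, pH 7.5. Percent free RNA is the blank-corrected intact/disrupted ratio.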

| SMILES | PDI [1] | Size (nm) [1] | Total Flux 3 hours (luciferase (Luc) mRNA [3]; mice, i.v., 0.5 mg/kg) | Total Flux 6 hours (luciferase (Luc) mRNA [3]; mice, i.v., 0.5 mg/kg) | Total Flux 24 hours (luciferase (Luc) mRNA [3]; mice, i.v., 0.5 mg/kg) | pKa [4] | Total Flux Liver (luciferase (Luc) mRNA [5]) | Total Flux Lung (luciferase (Luc) mRNA [5]) | Total Flux Spleen (luciferase (Luc) mRNA [5]) | EE (%) [6] | other results |
| --- | --- | --- | --- | --- | --- | --- | --- | --- | --- | --- | --- |
| CCCCCCCCCN(CCCCCCCC(=O)OC(CCCCCCCC)CCCCCCCC)CCCn1ccnc1 [Compound 8, Heptadecan-9-yl 8-((3-(1H-imidazol-1-yl)propyl)(nonyl)amino)octanoate] | 0.15 | 121.0 nm | 7.43E+09 | 6.71E+09 | 7.84E+08 | 6.64 | 7.87E+08 | 4.06E+06 | 1.51E+08 | 95.8% | Total flux, 0.001 mpk Dose (luciferase (Luc) mRNA [2]): 7.81E+05 p/s; Total flux, 0.01 mpk Dose (luciferase (Luc) mRNA [2]): 3.32E+06 p/s |
| CCCCCCCCCOC(=O)CCCCCCCN(CCO)CCCCCCCC(=O)OC(CCCCCC)CCCCCCCC (stereo not shown) [Compound 32, nonyl 8-((2-hydroxyethyl)(8-oxo-8-(pentadecan-7-yloxy)octyl)amino) octanoate] | 0.18 | 105.6 nm | 8.65E+10 | 6.08E+10 | 1.92E+09 | 6.75 | 8.52E+09 | 1.16E+07 | 1.70E+08 | 94.87% | Total flux, 0.001 mpk Dose (luciferase (Luc) mRNA [2]): 7.37E+05 p/s; Total flux, 0.01 mpk Dose (luciferase (Luc) mRNA [2]): 1.03E+07 p/s; Fold increase in total body Luc Flux relative to MC3 at 6 h (luciferase (Luc) mRNA [3]): 1.39; total flux at 3 hours (luciferase (Luc) mRNA [3]; mice, i.v., 0.5 mg/kg, comparison in words): highest |
| CCCCCCCCCOC(=O)CCCCCCCN(CCO)CCCCCCCC(=O)OC(CC)CCCCCCCC (stereo not shown) [Compound 35, nonyl 8-((2-hydroxyethyl)(8-oxo-8-(undecan-3-yloxy)octyl)amino) octanoate] | 0.18 | 151.1 nm | 9.82E+08 | 1.24E+09 | 5.09E+07 | 6.85 | 1.63E+08 | 2.06E+06 | 1.23E+08 | 90.82% | Total flux, 0.001 mpk Dose (luciferase (Luc) mRNA [2]): 2.45E+06 p/s; Total flux, 0.01 mpk Dose (luciferase (Luc) mRNA [2]): 8.12E+06 p/s; Fold increase in total body Luc Flux relative to MC3 at 6 h (luciferase (Luc) mRNA [3]): 0.028 |
| CCCCCCCCC(CCCCCCCC)OC(=O)CCCCCCCN(CCO)CCCC(=O)OC(CCCCC)CCCCCCCC (stereo not shown) [Compound 71, Heptadecan-9-yl 8-((2-hydroxyethyl)(4-oxo-4-(tetradecan-6-yloxy)butyl)amino)octanoate] | 0.24 | 71 nm | 4.09E+09 | 9.28E+09 | 6.51E+07 | 5.88 | 7.93E+08 | 4.86E+06 | 8.04E+06 | 97.54% | AUC (p/s * h) (luciferase (Luc) mRNA [2]; intramuscular): 6.61E+07 p/s * h; Lipid/MC3 AUC (luciferase (Luc) mRNA [2]; intramuscular): 0.11; Fold increase in total body Luc Flux relative to MC3 at 6 h (luciferase (Luc) mRNA [3]): 0.418 |
| CCCCCCCCCOC(=O)CCCCCCCN(CCCCCCCC(=O)OC(CCCCCCCC)CCCCCCCC)CCCn1ccc(=O)[nH]c1=O [Compound 114, Heptadecan-9-yl 8-((3-(2,4-dioxo-3,4-dihydropyrimidin-1(2H)-yl)propyl)(8-(nonyloxy)-8-oxooctyl)amino)octanoate] | 0.11 | 65.1 nm | 8.41E+07 | 5.98E+07 |  | 6.42 |  |  |  | 98.8% | Total flux (p/s) 0.01 mpk Dose (luciferase (Luc) mRNA [2]): 3.31E+06 p/s |
| CCCCCCCCCOC(=O)CCCCCCCN(CCCN)CCCCCCCC(=O)OC(CCCCCCCC)CCCCCCCC [Compound 121, Heptadecan-9-yl 8-((3-aminopropyl)(8-(nonyloxy)-8-oxooctyl)amino)octanoate] |  |  | 1.29E+06 | 1.36E+06 |  | 8.50 |  |  |  |  | Total flux (p/s) 0.01 mpk Dose (luciferase (Luc) mRNA [2]): 1.06E+06 p/s |
| CCCCCCCCCOC(=O)CCCCCCCN(C)CCCCCCCC(=O)OC(CCCCCCCC)CCCCCCCC [Compound 123, Heptadecan-9-yl 8-(methyl(8-(nonyloxy)-8-oxooctyl)amino)octanoate] |  |  | 4.06E+09 | 1.81E+10 | 5.18E+08 | 6.27 | 2.50E+08 | 1.78E+06 | 4.04E+06 |  | Total flux (p/s) 0.01 mpk Dose (luciferase (Luc) mRNA [2]): 1.08E+07 p/s |
| CCCCCCCCCOC(=O)CCCCCCCN(CCCCCCCC(=O)OC(CCCCCCCC)CCCCCCCC)C(CO)CO [Compound 156, Heptadecan-9-yl 8-((1,3-dihydroxypropan-2-yl)(8-(nonyloxy)-8-oxooctyl)amino)octanoate] | 0.11 | 68.1 nm | 5.68E+09 | 1.03E+10 | 6.53E+07 | 6.572 | 6.51E+08 | 1.92E+06 | 1.82E+07 | 98.47% | AUC (p/s * h) (luciferase (Luc) mRNA [2]; intramuscular): 3.92E+07 p/s * h; Lipid/MC3 AUC (luciferase (Luc) mRNA [2]; intramuscular): 0.07; Lipid/MC3 AUC (luciferase (Luc) mRNA [3]; Table 3D, intravenous): 0.61; AUC (p/s * h) (luciferase (Luc) mRNA [3]; Table 3D, intravenous, Luc): 1.170E+011 p/s * h; App. pKa ([4]; Table 3F): 6.57 |
| CCCCCCCCCOC(=O)CCCCCCCN(CCCCCCCC(=O)OC(CCCCCCCC)CCCCCCCC)CCCN(C)S(C)(=O)=O [Compound 173, Heptadecan-9-yl 8-((3-(N-methylmethylsulfonamido)propyl)(8-(nonyloxy)-8-oxooctyl)amino)octanoate] | 0.16 | 75.5 nm |  |  |  | 6.31 |  |  |  | 92.89% | i.m. Lipid/MC3 0.01 mpk, Luc, 6 h (luciferase (Luc) mRNA [2]): 0.6 |
| CCCCCCCCCOC(=O)CCCCCCCN(CCCCCCCC(=O)OC(CCCCCCCC)CCCCCCCC)CCCN1C(=O)CNC1=O [Compound 174, Heptadecan-9-yl 8-((3-(2,5-dioxoimidazolidin-1-yl)propyl)(8-(nonyloxy)-8-oxooctyl)amino)octanoate] | 0.21 | 84.4 nm |  |  |  | 6.65 |  |  |  | 99.0% | i.m. Lipid/MC3 0.01 mpk, Luc, 6 h (luciferase (Luc) mRNA [2]): 0.2 |
| CCCCCCCCCOC(=O)CCCCCCCN(CCCCCCCC(=O)OC(CCCCCCCC)CCCCCCCC)CCCOC(=O)NC [Compound 175, Heptadecan-9-yl 8-((3-((methylcarbamoyl)oxy)propyl)(8-(nonyloxy)-8-oxooctyl)amino)octanoate] | 0.16 | 65.7 nm |  |  |  | 6.15 |  |  |  | 94.8% | i.m. Lipid/MC3 0.01 mpk, Luc, 6 h (luciferase (Luc) mRNA [2]): 0.1 |
| CCCCCCCCCOC(=O)CCCCCCCN(CCCCCCCC(=O)OC(CCCCCCCC)CCCCCCCC)CCCn1cc(CO)nn1 [Compound 218, Heptadecan-9-yl 8-((3-(4-(hydroxymethyl)-1H-1,2,3-triazol-1-yl)propyl)(8-(nonyloxy)-8-oxooctyl)amino)octanoate] | 0.21 | 81.4 nm |  |  |  | 6.59 |  |  |  | 98.8% | Novel lipid/MC3 expression ratio, 6 hr. time point, i.m. Luc (luciferase (Luc) mRNA [2]; intramuscular, relative to MC3 formulation): 1.77 |
